Experimental data published in patent US20260176320A1, “MODULATORS OF G-PROTEIN COUPLED RECEPTORS” (priority 2018, published 2026).
Read-outs that look alike come from different tables or passages of the source. Numbered stars: 1 amine (or outer) side, 2 acyl side, 3 side chain; on linkers, the order of the positions; unused ones are H or OH. Square brackets hold non-standard residues; d marks the D form. Side chains are listed from the residue outwards. Peptide text beside a SMILES is read from it. * marks the point of attachment. X1 = O=C(CSCC(=O)*)NCCN1C(=O)c2ccccc2C1=O; X9 = O=C([C@H](Cc1cc(O)no1)N[*:1])[*:2]; γGlu = O=C(O)[C@H](CCC(=O)[*:2])N[*:1]; Palmitoyl = CCCCCCCCCCCCCCCC(=O)*; X6 = O=C(CSCC(=O)*)NCCN1CCCCC1=O; Aib = CC(C)(N)C(=O)O

Assays:
Format in all cases: cell-based
GLP-1R [1] = biological target: T1, GLP-1R (Homo sapiens, UniProt P43220); assay: HitHunter cAMP assay (GLP-1R); settings: cAMP; for Emax: read-out: (Emax) GLP-1R
Outline: (§1)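 Suspension cells expressing each receptor (10,000 per well) in HBSS with 10 mM HEPES, 625 μM IBMX and 0.2% BSA were treated with a 22-point 2-fold agonist series in duplicate for 30 minutes at room temperature. cAMP was detected by antibody immunocompetition with luminescence read after overnight incubation.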

GLP-1R [2] = biological target: T1, GLP-1R; assay: PathHunter β-arrestin assay
Experimental: The effects of the chemical entities described herein on β-arrestin signaling and associated downstream processes (e.g., those delineated above) can be assessed using conventional methods, e.g., PathHunter β-arrestin Assay for determining β-arresting coupling (see Examples section). […] It has been shown that b-arrestin coupling is a key strep in receptor internalization and subsequent de-sensitization and attenuation of signaling.
5,000 cells were seeded in appropriate cell culture media per well in a low volume 384-well tissue culture plate. The assay plate was incubated with cells overnight at 37° C. and 5% CO2. The media was removed, and 5 μL of appropriate cell culture media containing 0.2% BSA was added. Agonist serial dilutions in a separate 384 well dilution plate in a 22-point series of 2× dilutions of agonist in DMSO were performed as follows. 80 μL of the highest concentration of Agonist/DMSO was added to well No. 1. 40 μL was removed from well No. 1, and added to well No. 2, followed by gentle mixing. […] This process was repeated until well No. 22. Additional serial dilutions for additional agonists were set up in a similar manner. 100 nL of each 2× agonist serial dilution was added in duplicate to the designated agonist rows of the assay plate using the Labcyte ECHO. Assay plate was incubated for 90 minutes at 37° C. and 5% CO2. A stock of Working Detection Solution in a separate 15 ml polypropylene tube was prepared by mixing 19 parts of Cell Assay Buffer, 5 parts of Substrate Reagent 1, 1 part Substrate Reagent 2. […] Plates were spun down briefly. Assay plate was incubated for 3 hour at room temperature in the dark for the immunocompetition reaction to occur. Samples were read on Tecan i-control plate reader using luminescence mode with 100 ms integration time. Data analysis was performed using GraphPad Prism.

GIP-R = biological target: T2, GIP-R (Homo sapiens, UniProt P48546); assay: HitHunter cAMP assay (GIP-R); settings: cAMP; for Emax: read-out: (Emax) GIP-R
T2 sequence (P48546 22-466): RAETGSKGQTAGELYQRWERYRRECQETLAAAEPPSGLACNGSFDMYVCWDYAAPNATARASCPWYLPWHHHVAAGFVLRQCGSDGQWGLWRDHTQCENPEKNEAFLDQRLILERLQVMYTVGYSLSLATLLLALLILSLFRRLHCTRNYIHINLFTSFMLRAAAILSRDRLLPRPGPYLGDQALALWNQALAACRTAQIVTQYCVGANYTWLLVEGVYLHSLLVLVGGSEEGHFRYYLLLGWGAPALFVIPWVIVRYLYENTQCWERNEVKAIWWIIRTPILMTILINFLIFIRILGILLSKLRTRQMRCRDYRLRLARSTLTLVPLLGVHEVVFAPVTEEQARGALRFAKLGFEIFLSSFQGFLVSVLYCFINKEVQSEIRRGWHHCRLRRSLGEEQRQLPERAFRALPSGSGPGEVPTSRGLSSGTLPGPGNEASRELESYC
Outline: as §1

[3] = Table 3A, read-out: EC50 GLP-1R/nM

T1 sequence (P43220 24-463): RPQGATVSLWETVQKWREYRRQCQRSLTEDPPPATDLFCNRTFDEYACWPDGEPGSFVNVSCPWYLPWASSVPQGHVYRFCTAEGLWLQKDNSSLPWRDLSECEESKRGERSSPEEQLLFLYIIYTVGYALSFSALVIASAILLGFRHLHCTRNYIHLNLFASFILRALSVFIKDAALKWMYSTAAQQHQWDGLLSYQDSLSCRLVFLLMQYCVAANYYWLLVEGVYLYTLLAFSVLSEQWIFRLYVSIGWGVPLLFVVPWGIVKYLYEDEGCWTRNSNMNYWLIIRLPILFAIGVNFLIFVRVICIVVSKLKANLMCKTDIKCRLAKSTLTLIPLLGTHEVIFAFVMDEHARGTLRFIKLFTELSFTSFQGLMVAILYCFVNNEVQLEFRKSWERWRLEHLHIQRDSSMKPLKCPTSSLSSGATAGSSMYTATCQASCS

| SMILES | Emax (GLP-1R [1]; Table 3A) [%] | EC50 (GLP-1R [1]; [3]) [nM] | Emax (GIP-R; Table 3A) [%] | EC50 (GLP-1R [2]) [nM] | also measured |
| --- | --- | --- | --- | --- | --- |
| CCCCCCCCCCCCCCCC(=O)N[C@@H](CCC(=O)NCCCC[C@H](NC(=O)[C@H](CO)NC(=O)[C@@H]1CCCN1C(=O)[C@@H]1CCCN1C(=O)[C@@H]1CCCN1C(=O)[C@H](C)NC(=O)CNC(=O)[C@H](CO)NC(=O)[C@H](CO)NC(=O)[C@@H]1CCCN1C(=O)CNC(=O)CNC(=O)[C@H](C)NC(=O)[C@H](CC(C)C)NC(=O)[C@H](CC(C)C)NC(=O)[C@H](Cc1c[nH]c2ccccc12)NC(=O)[C@H](CC(N)=O)NC(=O)[C@@H](NC(=O)[C@H](Cc1ccccc1)NC(=O)[C@H](CCC(=O)O)NC(=O)C(C)(C)NC(=O)[C@H](C)NC(=O)[C@H](C)NC(=O)[C@H](CCC(N)=O)NC(=O)[C@H](CCCCN)NC(=O)[C@H](CC(=O)O)NC(=O)[C@H](CC(C)C)NC(=O)[C@H](Cc1ccc(O)cc1)NC(=O)[C@@H](NC(=O)[C@H](CO)NC(=O)[C@H](Cc1ccc(O)cc1)NC(=O)[C@H](CC(=O)O)NC(=O)[C@H](CO)NC(=O)[C@@H](NC(=O)[C@H](Cc1ccccc1)NC(=O)[C@@H](NC(=O)CNC(=O)[C@H](CCC(=O)O)NC(=O)CC(C)(C)NC(=O)CCN1CCCCC1=O)[C@@H](C)O)[C@@H](C)O)[C@@H](C)CC)C(C)C)C(N)=O)C(=O)O [Compound 3] | 96 | 0.1 to 1 |  |  | Emax (GLP-1R [1]; Table 3): 96%; EC50 (GLP-1R [1]; Table 3, read-out: EC50 GLP-1R/nM): 0.1 to 1 nM; EC50 (GLP-1R [2]; PathHunter β-arrestin assay, read-out: β-arrestin activity EC50): > 1000 nM |
| CCCCCCCCCCCCCCCC(=O)N[C@@H](CCC(=O)NCCCC[C@H](NC(=O)[C@H](CO)NC(=O)[C@@H]1CCCN1C(=O)[C@@H]1CCCN1C(=O)[C@@H]1CCCN1C(=O)[C@H](C)NC(=O)CNC(=O)[C@H](CO)NC(=O)[C@H](CO)NC(=O)[C@@H]1CCCN1C(=O)CNC(=O)CNC(=O)[C@H](C)NC(=O)[C@H](CC(C)C)NC(=O)[C@H](CC(C)C)NC(=O)[C@H](Cc1c[nH]c2ccccc12)NC(=O)[C@H](CC(N)=O)NC(=O)[C@@H](NC(=O)[C@H](Cc1ccccc1)NC(=O)[C@H](CCC(=O)O)NC(=O)C(C)(C)NC(=O)[C@H](C)NC(=O)[C@H](C)NC(=O)[C@H](CCC(N)=O)NC(=O)[C@H](CCCCN)NC(=O)[C@H](CC(=O)O)NC(=O)[C@H](CC(C)C)NC(=O)[C@H](Cc1ccc(O)cc1)NC(=O)[C@@H](NC(=O)[C@H](CO)NC(=O)[C@H](Cc1ccc(O)cc1)NC(=O)[C@H](CC(=O)O)NC(=O)[C@H](CO)NC(=O)[C@@H](NC(=O)[C@H](Cc1ccccc1)NC(=O)[C@@H](NC(=O)CNC(=O)[C@H](CCC(=O)O)NC(=O)CSCC(=O)NCCN1C(=O)[C@@H]2CC[C@H]1C2)[C@@H](C)O)[C@@H](C)O)[C@@H](C)CC)C(C)C)C(N)=O)C(=O)O [Compound 291] | 100 |  | 60 |  | EC50 (GIP-R; EC50 GIP-R/nM, Table 3A): 1 to 10 nM; EC50 (GLP-1R [1]; EC50 GLP-1R/nM, Table 3A): 0.1 to 1 nM |
| CCCCCCCCCCCCCCCC(=O)N[C@@H](CCC(=O)NCCCC[C@H](NC(=O)[C@H](CO)NC(=O)[C@@H]1CCCN1C(=O)[C@@H]1CCCN1C(=O)[C@@H]1CCCN1C(=O)[C@H](C)NC(=O)CNC(=O)[C@H](CO)NC(=O)[C@H](CO)NC(=O)[C@@H]1CCCN1C(=O)CNC(=O)CNC(=O)[C@H](C)NC(=O)[C@H](CC(C)C)NC(=O)[C@H](CC(C)C)NC(=O)[C@H](Cc1c[nH]c2ccccc12)NC(=O)[C@H](CC(N)=O)NC(=O)[C@@H](NC(=O)[C@H](Cc1ccccc1)NC(=O)[C@H](CCC(=O)O)NC(=O)C(C)(C)NC(=O)[C@H](C)NC(=O)[C@H](C)NC(=O)[C@H](CCC(N)=O)NC(=O)[C@H](CCCCN)NC(=O)[C@H](CC(=O)O)NC(=O)[C@H](CC(C)C)NC(=O)[C@H](Cc1ccc(O)cc1)NC(=O)[C@@H](NC(=O)[C@H](CO)NC(=O)[C@H](Cc1ccc(O)cc1)NC(=O)[C@H](CC(=O)O)NC(=O)[C@H](CO)NC(=O)[C@@H](NC(=O)[C@H](Cc1ccccc1)NC(=O)[C@@H](NC(=O)CNC(=O)[C@H](Cc1cc(O)no1)NC(=O)CSCC(=O)NCCN1CCCCC1=O)[C@@H](C)O)[C@@H](C)O)[C@@H](C)CC)C(C)C)C(N)=O)C(=O)O [Compound 292] (X6-[X9]GTFTSDYSIYLDKQAA[Aib]EFVNWLLAGGPSSGAPPPSK([γGlu-Palmitoyl])-NH2) | 90 | 1 to 10 | 50 |  | EC50 (GIP-R; Table 3A, read-out: EC50 GIP-R/nM): 10 to 100 nM |
| CC[C@H](C)[C@H](NC(=O)[C@H](CO)NC(=O)[C@H](Cc1ccc(O)cc1)NC(=O)[C@H](CC(=O)O)NC(=O)[C@H](CO)NC(=O)[C@@H](NC(=O)[C@H](Cc1ccccc1)NC(=O)[C@@H](NC(=O)CNC(=O)[C@H](CCC(=O)O)NC(=O)CSCC(=O)NCCN1C(=O)c2ccccc2C1=O)[C@@H](C)O)[C@@H](C)O)C(=O)N[C@@H](Cc1ccc(O)cc1)C(=O)N[C@@H](CC(C)C)C(=O)N[C@@H](CC(=O)O)C(=O)N[C@@H](CCCCN)C(=O)N[C@@H](CCC(N)=O)C(=O)N[C@@H](C)C(=O)N[C@@H](C)C(=O)NC(C)(C)C(=O)N[C@@H](CCC(=O)O)C(=O)N[C@@H](Cc1ccccc1)C(=O)N[C@H](C(=O)N[C@@H](CCC(=O)O)C(=O)N[C@@H](Cc1c[nH]c2ccccc12)C(=O)N[C@@H](CC(C)C)C(=O)N[C@@H](CC(C)C)C(=O)N[C@@H](C)C(=O)NCC(=O)NCC(=O)N1CCC[C@H]1C(=O)N[C@@H](CO)C(=O)N[C@@H](CO)C(=O)NCC(=O)N[C@@H](C)C(=O)N1CCC[C@H]1C(=O)N1CCC[C@H]1C(=O)N1CCC[C@H]1C(=O)N[C@@H](CO)C(=O)N[C@@H](CCCCN)C(N)=O)C(C)C [compound 149] (X1-EGTFTSDYSIYLDKQAA[Aib]EFVEWLLAGGPSSGAPPPSK-NH2) |  |  |  | > 1000 |  |
| CC[C@H](C)[C@H](NC(=O)[C@H](CO)NC(=O)[C@H](Cc1ccc(O)cc1)NC(=O)[C@H](CC(=O)O)NC(=O)[C@H](CO)NC(=O)[C@@H](NC(=O)[C@H](Cc1ccccc1)NC(=O)[C@@H](NC(=O)CNC(=O)[C@H](CCC(=O)O)NC(=O)CSCC(=O)NCCN1C(=O)c2ccccc2C1=O)[C@@H](C)O)[C@@H](C)O)C(=O)N[C@@H](Cc1ccc(O)cc1)C(=O)N[C@@H](CC(C)C)C(=O)N[C@@H](CC(=O)O)C(=O)N[C@@H](CCC(=O)O)C(=O)N[C@@H](CCC(N)=O)C(=O)N[C@@H](C)C(=O)N[C@@H](C)C(=O)NC(C)(C)C(=O)N[C@@H](CCC(=O)O)C(=O)N[C@@H](Cc1ccccc1)C(=O)N[C@H](C(=O)N[C@@H](CC(N)=O)C(=O)N[C@@H](Cc1c[nH]c2ccccc12)C(=O)N[C@@H](CC(C)C)C(=O)N[C@@H](CC(C)C)C(=O)N[C@@H](C)C(=O)NCC(=O)NCC(=O)N1CCC[C@H]1C(=O)N[C@@H](CO)C(=O)N[C@@H](CO)C(=O)NCC(=O)N[C@@H](C)C(=O)N1CCC[C@H]1C(=O)N1CCC[C@H]1C(=O)N1CCC[C@H]1C(=O)N[C@@H](CO)C(=O)N[C@@H](CCCCN)C(N)=O)C(C)C [compound 150] (X1-EGTFTSDYSIYLDEQAA[Aib]EFVNWLLAGGPSSGAPPPSK-NH2) |  |  |  | > 1000 | Emax (GIP-R; Table 3): 118 to 130% |
